Test results: patent publication US20140275969A1, “FUNCTIONAL BROWN ADIPOSE TISSUE IMAGING TECHNIQUE” (GENERAL ELECTRIC COMPANY, priority 2013, published 2014)
Entries after “also recorded” stand apart in the source; their conditions may differ. Marks after values point to notes of the source that are not given here.

Legend:
[1] = human full blood at 37 degrees C.; cited from earlier work
[2] = test system: brown adipose tissue (BAT-associated dorsal interscapular region); test: Hyperpolarized 13C MR imaging of brown adipose tissue activation after norepinephrine stimulation; assay type: in vivo, male Sprague-Dawley rats
Experimental: (§1) The following experimental results are from studies using male Sprague-Dawley rats (n=5, weight=336 g, SD=66 g) that were assessed for brown adipose tissue activation and assessment according to certain embodiments of the disclosure. The animals were kept at an ambient room temperature of 22° C. Ketamine/xylazine was used for anesthesia, with periodic intramuscular re-administration to maintain anesthesia (80-100 mg/kg ketamine, 8-10 mg/kg xylazine). Blood oxygen saturation and heart rate were monitored using a peripheral pulse oximeter placed on the tail. The body temperature of the animal was maintained throughout the imaging procedures using a heated water pad.
(§2) The animals were scanned in the supine position using a 3T GE MR750 scanner (GE Healthcare, Waukesha, Wis.). A micro-strip dual-tuned ^1H/^13C rat coil (Magvale, San Francisco, Calif.) was used. The rat was positioned so that the heart was in the centre of the coil, taking care to position the dorsal interscapular fat pad to remain within the sensitive region of the coil. A T2-weighted fast spin echo (FSE) (TE, 87 ms; TR, 5 s; matrix size, 192×160; FOV, 12×12 cm^2; slice thickness, 3 mm) sequence was used to obtain an anatomical reference for co-registration. A 2D FSE IDEAL sequence (TR, 5 s; matrix size, 192×160; FOV, 12×12 cm^2, slice thickness, 3 mm) was used to obtain water and fat images.
(§3) Hyperpolarized ^13C MR imaging scans were performed following intravenous tail vein infusions of 2.0 mL/80 mM pre-polarized [1-^13C] pyruvate. Pyruvate was injected over 10 seconds, with the MR imaging acquisition started simultaneously with the start of injection. Hyperpolarized scans were performed during baseline (n=5) and stimulated (n=3) conditions, 15 minutes after 2.5 mg/kg intraperitoneal norepinephrine (NE) injection, separated by approximately 1 hour to prepare the hyperpolarized sample. Pyruvate, bicarbonate, and lactate were imaged in an axial orientation using a multi-slice, single-shot, time-resolved 13C spiral imaging pulse sequence previously developed for large animal cardiac imaging (TR, 5 s; FOV, 48×48 cm^2; in-plane resolution, 6.8×6 8 mm^2; 6 slices, slice thickness/spacing, 10 mm/1 mm; pyruvate FA 10°, bicarbonate and lactate FA 60°; scan time, 1 min) (18, 24, 25). Each metabolic volume was acquired once during each TR, giving a total of 12 frames.
(§4) ROIs were drawn using the T2-weighted anatomical images, over the heart, kidneys, and in the dorsal interscapular region, a known depot of BAT in rodents. The ^13C image intensity in these ROIs were normalized to the temporal maximum pyruvate signal in the heart, and corrected for nominal FA by dividing by sin(FA). Statistical significance between baseline and norepinephrine stimulated conditions were assessed using a two-tailed, unpaired Student's t-test. Statistical significance was considered at the P<0.05 level.
To separate the effect from the effect of a change in perfusion, the dynamic data was fit on a voxel-by-voxel basis to obtain the apparent rate constants for pyruvate-to-bicarbonate conversion (kpyr,bic, s^−1) and pyruvate-to-lactate exchange (kpyr,lac, s^−1).

heart = test: Hyperpolarized 13C MR imaging after norepinephrine stimulation, heart ROI; assay type: in vivo, male Sprague-Dawley rats
Experimental: as §1, §2, §3, §4

kidneys = test: Hyperpolarized 13C MR imaging after norepinephrine stimulation, kidney ROI; assay type: in vivo, male Sprague-Dawley rats
Experimental: as §1, §2, §3, §4

[3] = BAT-associated dorsal interscapular region, voxel-by-voxel fit of dynamic data

Compound | T1 relaxation [1] | 13C bicarbonate signal change following norepinephrine stimulation, relative to substrate signal in the heart ([2]; BAT-associated dorsal interscapular region, in words) | Difference in apparent pyruvate-to-bicarbonate conversion rate (kpyr,bic) versus baseline [2, 3] [fold] | Difference in apparent pyruvate-to-lactate conversion rate (kpyr,lac) versus baseline [2, 3] [fold] | Increase in hyperpolarized [1-13C] lactate (lactate-to-pyruvate ratio) versus baseline ([2]; BAT-associated interscapular region, P<0.001) [fold] | Increase in hyperpolarized 13C bicarbonate (bicarbonate-to-pyruvate ratio) versus baseline ([2]; BAT-associated interscapular region, P<0.01) [fold] | Hyperpolarized [1-13C] lactate signal change following norepinephrine infusion ([2]; dorsal interscapular region, in words) | Maximum bicarbonate to maximum cardiac pyruvate signal ratio ([2]; interscapular region, 15 minutes after 2.5 mg/kg intraperitoneal norepinephrine, n = 2, mean±SD) | Maximum lactate to maximum cardiac pyruvate signal ratio ([2]; interscapular region, 15 minutes after 2.5 mg/kg intraperitoneal norepinephrine, n = 3, mean±SD) | Maximum bicarbonate to maximum cardiac pyruvate signal ratio (heart; 15 minutes after 2.5 mg/kg intraperitoneal norepinephrine, n = 2, mean±SD) | Maximum lactate to maximum cardiac pyruvate signal ratio (heart; 15 minutes after 2.5 mg/kg intraperitoneal norepinephrine, n = 3, mean±SD) | Increase in hyperpolarized lactate signal versus baseline (heart; P<0.001) [fold] | Hyperpolarized [1-13C] lactate signal change following norepinephrine infusion (heart; in words) | 13C bicarbonate signal change following norepinephrine stimulation, relative to substrate signal in the heart (heart; in words, listed as NE) | 13C bicarbonate signal change following norepinephrine stimulation, relative to substrate signal in the heart (heart; in words, listed as norepinephrine) | Maximum bicarbonate to maximum cardiac pyruvate signal ratio (kidneys; kidney, 15 minutes after 2.5 mg/kg intraperitoneal norepinephrine, n = 2, mean±SD) | Maximum lactate to maximum cardiac pyruvate signal ratio (kidneys; kidney, 15 minutes after 2.5 mg/kg intraperitoneal norepinephrine, n = 3, mean±SD) | 13C bicarbonate signal change following norepinephrine stimulation, relative to substrate signal in the heart (kidneys; kidney, in words) | Increase in hyperpolarized lactate signal versus baseline (kidneys; kidneys, P<0.05) [fold] | Hyperpolarized [1-13C] lactate signal change following norepinephrine infusion (kidneys; kidneys, in words)
CC(=O)[13C](=O)O [^13C1-pyruvate, [1-^13C] pyruvate] | about 42 s | – | – | – | – | – | – | – | – | – | – | – | – | – | – | – | – | – | – | –
NC[C@H](O)c1ccc(O)c(O)c1 [Norepinephrine, norepinephrine] | – | increased | 3.4 | 4.0 | 4.0 | 4.3 | Increases | 0.0047 ± 0.0010*^ | 0.0543 ± 0.0051 | 0.0099 ± 0.0032^ns | 0.0816 ± 0.0191 | 4.0 | Increases | remained constant | remained constant; also recorded: not statistically significant | 0.0036 ± 0.0028^ns | 0.0625 ± 0.0130 | decreased | 1.9 | Increases
